Laboratory results reported in patent US20060247305A1, “Chromen-4-one inhibitors of anti-apoptotic Bcl-2 family members and the uses thereof” (Regents of the University of Michigan, priority 2005, published 2006).
Read-outs that look alike come from different tables or passages of the source.

Key:
[1] = system: PC-3 prostate cancer cells; assay: Cell growth inhibition, MTT, PC-3 prostate cancer cells; format: cell-based, human; settings: for IC50: Homo sapiens, 120 h, 5 days incubation, MTT cell viability, read-out: Cellular Activity IC50 (μM) PC3
Method: (§1) To test the effect of compounds of the present invention on inhibition of cell growth in human cancer cells, the compounds were administered to two different cancer cell lines. PC-3 prostate cancer cells and 2LMP breast cancer cells were each seeded in 96-well plates with increasing concentrations of inhibitor compounds. The cells were then incubated at 37° C. with 5% CO2 for 5 days, followed by detection of cell viability with MTT. Untreated cells were used as 100% growth.

2LMP breast cancer cells = assay: Cell growth inhibition, MTT, 2LMP breast cancer cells; format: cell-based, human; settings: for IC50: Homo sapiens, 120 h, 5 days incubation, MTT cell viability, read-out: Cellular Activity IC50 (μM) 2LMP
Method: as §1

[2] = target: T1, human Bcl-xL recombinant His-tagged protein (Homo sapiens, UniProt Q07817); assay: Bcl-xL fluorescence polarization-based competitive binding assay (Flu-Bak peptide); settings: for Ki: FP assay, 60 nM Bcl-xL, 5 nM Flu-Bak peptide, Ki calculated from IC50; for fold decrease of binding affinity to Bcl-xL: relative to the parent analogue (15d compared with 15b; 15j: removal of the big hydrophobic group)
T1 construct: without the C-terminus hydrophobic tail; His

[3] = target: Bcl-2 recombinant His-fused soluble protein (Homo sapiens, UniProt P10415); assay: Bcl-2 fluorescence polarization-based competitive binding assay (Flu-Bid-21 peptide); settings: for Ki: FP assay, 0.120 μM Bcl-2, 0.010 μM Flu-Bid-21, 4 hours incubation, Ki calculated from IC50, read-out: Binding Affinity Ki (μM) Bc1-2; for fold decrease of binding affinity to Bcl-2: relative to the parent analogue (15c, 15d compared with 15b; 15j: removal of the big hydrophobic group)
[4] = read-out: Binding Affinity Ki (μM) Bc1-xL

Sequence of Bcl-2 recombinant His-fused soluble protein (P10415 whole entry, the tested form may be a part): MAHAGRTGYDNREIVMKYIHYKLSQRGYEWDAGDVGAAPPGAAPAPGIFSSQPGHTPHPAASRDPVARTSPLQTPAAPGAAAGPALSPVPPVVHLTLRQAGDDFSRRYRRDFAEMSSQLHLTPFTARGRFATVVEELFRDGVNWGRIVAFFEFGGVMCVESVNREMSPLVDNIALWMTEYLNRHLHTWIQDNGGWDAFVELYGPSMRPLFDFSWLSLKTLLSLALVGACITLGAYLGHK
T1 sequence (Q07817 1-209 limits assumed): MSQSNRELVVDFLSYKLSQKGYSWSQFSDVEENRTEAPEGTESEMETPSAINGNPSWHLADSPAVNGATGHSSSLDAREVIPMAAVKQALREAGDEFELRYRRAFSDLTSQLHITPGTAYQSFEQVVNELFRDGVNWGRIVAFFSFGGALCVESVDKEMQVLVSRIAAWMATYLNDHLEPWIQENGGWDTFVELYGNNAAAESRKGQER

| SMILES | IC50 [1] [µM] | IC50 (2LMP breast cancer cells) [µM] | Ki [2, 4] [µM] | fold decrease of binding affinity to Bcl-xL [2] | Ki [3] [µM] | fold decrease of binding affinity to Bcl-2 [3] | fold more potent than gossypol, cell growth inhibitory activity, PC3 ([1]; relative to gossypol) [fold] | fold more potent than gossypol, cell growth inhibitory activity, 2LMP (2LMP breast cancer cells; relative to gossypol) [fold] | Ki ([2]; Binding Affinity Ki (μM) Bc1-xL) [µM] |
| --- | --- | --- | --- | --- | --- | --- | --- | --- | --- |
| Cc1cc(=O)c2c(O)c(O)c(O)c(CC(C)C)c2o1 [Compound 15j, 5,6,7-Trihydroxy-8-isobutyl-2-methyl-chromen-4-one] | 20.1 | > 30 | > 14 | more than 10 fold | 4.63 ± 0.16 | > 50 fold |  |  |  |
| Cc1oc2c(CC(C)C)c(O)c(O)c(O)c2c(=O)c1-c1ccc2c(C(C)C)c(O)ccc2c1 [Compound 2, 5,6,7-Trihydroxy-3-(6-hydroxy-5-isopropyl-naphthalen-2-yl)-8-isobutyl-2-methyl-chromen-4-one] | 1.82 | 1.54 | 1.49 |  | 0.088 |  | 3 to 4 | 3 to 4 |  |
| Cc1cc2c(C(C)C)c(O)c(O)c(C=O)c2c(O)c1-c1c(C)cc2c(C(C)C)c(O)c(O)c(C=O)c2c1O [gossypol, reference compound] | 9.7 | 6 |  |  |  |  |  |  | 1.97 ± 0.39 |
| CCOc1ccc2cc(-c3c(C)oc4c(CC(C)C)c(OC)c(OC)c(OC)c4c3=O)ccc2c1 [Compound 15e, 3-(6-Ethoxy-naphthalen-2-yl)-8-isobutyl-5,6,7-trimethoxy-2-methyl-chromen-4-one] |  |  | > 14 |  | > 12 |  |  |  |  |
| COc1c(OC)c(OC)c2c(=O)c(-c3ccc4cc(O)ccc4c3)c(C)oc2c1CC(C)C [Compound 15d, 3-(6-Hydroxy-naphthalen-2-yl)-8-isobutyl-5,6,7-trimethoxy-2-methyl-chromen-4-one] | 20.6 | > 30 | > 14 | more than 10 fold | 1.24 ± 0.13 | more than 10 fold |  |  |  |
| Cc1oc2c(CC(C)C)c(O)c(O)c(O)c2c(=O)c1-c1ccc2c(C)c(O)ccc2c1 [Compound 15a, 5,6,7-Trihydroxy-3-(6-hydroxy-5-methyl-naphthalen-2-yl)-8-isobutyl-2-methyl-chromen-4-one] | 3.09 | 1.44 | 1.78 ± 0.13 |  | 0.13 ± 0.01 |  |  |  |  |

The next lines start with results.

| IC50 [1] [µM] | IC50 (2LMP breast cancer cells) [µM] | Ki [2, 4] [µM] | fold decrease of binding affinity to Bcl-xL [2] | Ki [3] [µM] | fold decrease of binding affinity to Bcl-2 [3] | SMILES | fold more potent than gossypol, cell growth inhibitory activity, PC3 ([1]; relative to gossypol) [fold] | fold more potent than gossypol, cell growth inhibitory activity, 2LMP (2LMP breast cancer cells; relative to gossypol) [fold] | Ki ([2]; Binding Affinity Ki (μM) Bc1-xL) [µM] |
| --- | --- | --- | --- | --- | --- | --- | --- | --- | --- |
| 23.7 | 9.3 | 4.27 ± 0.84 |  | 0.79 ± 0.03 |  | Cc1oc2c(CC(C)C)c(O)c(O)c(O)c2c(=O)c1-c1ccccc1 [Compound 15f, 5,6,7-Trihydroxy-8-isobutyl-2-methyl-3-phenyl-chromen-4-one] |  |  |  |
| 3.62 | 2.08 | 2.32 ± 0.26 |  | 0.39 ± 0.17 | about 2 fold | Cc1oc2c(CC(C)C)c(O)c(O)c(O)c2c(=O)c1-c1ccc2ccccc2c1 [Compound 15c, 5,6,7-Trihydroxy-8-isobutyl-2-methyl-3-naphthalen-2-yl-chromen-4-one] |  |  |  |
| 5.07 | 2.55 | 1.71 ± 0.22 |  | 0.17 ± 0.02 |  | Cc1oc2c(CC(C)C)c(O)c(O)c(O)c2c(=O)c1-c1ccc2cc(O)ccc2c1 [Compound 15b, 5,6,7-Trihydroxy-3-(6-hydroxy-naphthalen-2-yl)-8-isobutyl-2-methyl-chromen-4-one] |  |  |  |
